# Experimental data reported in publication PMC9959817, “Flow-Based Fmoc-SPPS Preparation and SAR Study of Cathelicidin-PY Reveals Selective Antimicrobial Activity” (Molecules, 2023).
# Where two headings read alike, the source gives them in different places. Where a SMILES comes first, the peptide text is derived from it. Bridges are numbered along the chain shown (N, C = ends). Where no end group is shown, it is not given here. [ ]: non-standard residue; d: D form. Dab = NCC[C@H](N)C(=O)O
# Columns and labels:
# S. aureus (ATCC 29213) = experiment: microbe, parasite or virus in culture; type: cell-based, Staphylococcus aureus; conditions: read-out: Minimum Inhibitory Concentration
# Excerpt: (§1) As we were primarily interested in the clinical potential of cathelicidin-PY (1) and its analogues 2–9, cation-adjusted Mueller-Hinton broth (CAMHB) was implemented during our in vitro antimicrobial screening towards bacteria. However, non-cation adjusted Mueller Hinton broth (MHB) was also implemented to evaluate the cation sensitivity of these AMPs. In each medium, compounds 1–9 were subjected to minimum inhibitory concentration (MIC) assays with E. coli (ATCC 25922), P. aeruginosa (SVB-B9), and S. aureus (ATCC 29213), in accordance with CLSI microbroth dilution protocols (Table 1). It is noteworthy, however, that the initial report of cathelicidin-PY’s isolation documented MIC assays performed in Luria Broth (LB). Furthermore, antifungal activity towards C. albicans was investigated.
# (§2) Staphylococcus aureus ATCC 29213, Pseudomonas aeruginosa (SVB-B9) (type strain), and Escherichia coli ATCC 25,922 were grown in either non-cation-adjusted or cation-adjusted Mueller Hinton (MH) broth at 37 °C with shaking (200 rpm). MIC assays were performed in technical triplicate in accordance with the CLSI-recommended protocol. All assays were performed independently on three occasions, with the reported MIC defined as the lowest concentration for which agreement was observed consistently for all replicates.
# C. albicans (SC5314) = experiment: microbe, parasite or virus in culture; type: cell-based, Candida albicans; conditions: read-out: Minimum Inhibitory Concentration
# Excerpt: as §1
# Antimicrobial susceptibility of Candida albicans SC5314 (type strain) was assessed by broth microdilution in RPMI 1640 media in accordance with the CLSI recommended protocols. All assays were performed independently on three occasions, with the reported MIC defined as the lowest concentration for which agreement was observed consistently for all replicates.
# P. aeruginosa (SVB-B9) = experiment: microbe, parasite or virus in culture; type: cell-based, Pseudomonas aeruginosa; conditions: for Minimum Inhibitory Concentration: SVB-B9; for MIC: P. aeruginosa SVB-B9 type strain, 37 °C, technical triplicate, three independent occasions, read-out: Minimum Inhibitory Concentration
# Excerpt: as §1, §2
# E. coli (ATCC 25922) = type: cell-based, Escherichia coli; conditions: 37 °C, technical triplicate, three independent occasions
# Excerpt: as §1, §2
# [1] = non-cation-adjusted Mueller-Hinton broth (MHB)
Compound,MIC (S. aureus (ATCC 29213); ATCC 29213),MIC (C. albicans (SC5314); SC5314),Minimum Inhibitory Concentration (P. aeruginosa (SVB-B9)),also measured
CC[C@H](C)[C@H](NC(=O)[C@H](Cc1c[nH]cn1)NC(=O)[C@H](CO)NC(=O)[C@@H](NC(=O)[C@@H](NC(=O)[C@@H](NC(=O)[C@@H](NC(=O)[C@H](CCCNC(=N)N)NC(=O)[C@H](CC(C)C)NC(=O)[C@H](CCCCN)NC(=O)[C@H](CCC(=O)O)NC(=O)[C@H](CCCCN)NC(=O)[C@H](CC(C)C)NC(=O)[C@H](CCCCN)NC(=O)[C@@H]1CCCCNC(=O)C[C@H](NC(=O)[C@H](CCCCN)NC(=O)[C@@H](N)CCCNC(=N)N)C(=O)N[C@@H](CC(N)=O)C(=O)N[C@@H](Cc2ccccc2)C(=O)N[C@@H](CC(C)C)C(=O)N1)[C@@H](C)O)C(C)C)[C@@H](C)CC)[C@@H](C)O)C(=O)N[C@@H](CC(=O)O)C(=O)N[C@@H](CCCCN)C(=O)N[C@H](C(=O)N[C@@H](CC(C)C)C(=O)N[C@@H](CCCNC(=N)N)C(=O)N1CCC[C@H]1C(=O)N[C@@H](CCC(N)=O)C(=O)NCC(=O)O)C(C)C [Compound 5] (H-RKDNFLKKLKEKLRTVITSHIDKVLRPQG-OH; lactam 3-7),>64 µM,>64 µM,,
CC[C@H](C)[C@H](NC(=O)[C@H](Cc1c[nH]cn1)NC(=O)[C@H](CO)NC(=O)[C@@H](NC(=O)[C@@H](NC(=O)[C@@H](NC(=O)[C@@H](NC(=O)[C@H](CCCNC(=N)N)NC(=O)[C@H](CC(C)C)NC(=O)[C@H](CCCCN)NC(=O)[C@H](CCC(=O)O)NC(=O)[C@H](CCCCN)NC(=O)[C@H](CC(C)C)NC(=O)[C@H](CCCCN)NC(=O)[C@@H]1CCC(=O)NCCCC[C@H](NC(=O)[C@H](CCCCN)NC(=O)[C@@H](N)CCCNC(=N)N)C(=O)N[C@@H](CC(N)=O)C(=O)N[C@@H](Cc2ccccc2)C(=O)N[C@@H](CC(C)C)C(=O)N1)[C@@H](C)O)C(C)C)[C@@H](C)CC)[C@@H](C)O)C(=O)N[C@@H](CC(=O)O)C(=O)N[C@@H](CCCCN)C(=O)N[C@H](C(=O)N[C@@H](CC(C)C)C(=O)N[C@@H](CCCNC(=N)N)C(=O)N1CCC[C@H]1C(=O)N[C@@H](CCC(N)=O)C(=O)NCC(=O)O)C(C)C [Compound 6] (H-RKKNFLEKLKEKLRTVITSHIDKVLRPQG-OH; lactam 3-7),>64 µM,>64 µM,4 to 8 µM,
CC[C@H](C)[C@H](NC(=O)[C@H](Cc1c[nH]cn1)NC(=O)[C@H](CO)NC(=O)[C@@H](NC(=O)[C@@H](NC(=O)[C@@H](NC(=O)[C@@H](NC(=O)[C@H](CCCNC(=N)N)NC(=O)[C@H](CC(C)C)NC(=O)[C@H](CCCCN)NC(=O)[C@H](CCC(=O)O)NC(=O)[C@H](CCCCN)NC(=O)[C@H](CC(C)C)NC(=O)[C@H](CCCCN)NC(=O)[C@@H]1CCCCNC(=O)CC[C@H](NC(=O)[C@H](CCCCN)NC(=O)[C@@H](N)CCCNC(=N)N)C(=O)N[C@@H](CC(N)=O)C(=O)N[C@@H](Cc2ccccc2)C(=O)N[C@@H](CC(C)C)C(=O)N1)[C@@H](C)O)C(C)C)[C@@H](C)CC)[C@@H](C)O)C(=O)N[C@@H](CC(=O)O)C(=O)N[C@@H](CCCCN)C(=O)N[C@H](C(=O)N[C@@H](CC(C)C)C(=O)N[C@@H](CCCNC(=N)N)C(=O)N1CCC[C@H]1C(=O)N[C@@H](CCC(N)=O)C(=O)NCC(=O)O)C(C)C [Compound 4] (H-RKENFLKKLKEKLRTVITSHIDKVLRPQG-OH; lactam 3-7),>64 µM,>64 µM,,
polymyxin B sulfate [reference compound],,,,MIC (P. aeruginosa (SVB-B9); [1]): 2 µM; Minimum Inhibitory Concentration (E. coli (ATCC 25922); cation-adjusted Mueller-Hinton broth (CAMHB)): 1 µM; Minimum Inhibitory Concentration (E. coli (ATCC 25922); [1]): 1 µM
CC[C@H](C)[C@H](NC(=O)[C@H](Cc1c[nH]cn1)NC(=O)[C@H](CO)NC(=O)[C@@H](NC(=O)[C@@H](NC(=O)[C@@H](NC(=O)[C@@H](NC(=O)[C@H](CCCNC(=N)N)NC(=O)[C@H](CC(C)C)NC(=O)[C@H](CCCCN)NC(=O)[C@H](CCC(=O)O)NC(=O)[C@H](CCCCN)NC(=O)[C@H](CC(C)C)NC(=O)[C@H](CCCCN)NC(=O)[C@@H]1CC(=O)NCCCC[C@H](NC(=O)[C@H](CCCCN)NC(=O)[C@@H](N)CCCNC(=N)N)C(=O)N[C@@H](CC(N)=O)C(=O)N[C@@H](Cc2ccccc2)C(=O)N[C@@H](CC(C)C)C(=O)N1)[C@@H](C)O)C(C)C)[C@@H](C)CC)[C@@H](C)O)C(=O)N[C@@H](CC(=O)O)C(=O)N[C@@H](CCCCN)C(=O)N[C@H](C(=O)N[C@@H](CC(C)C)C(=O)N[C@@H](CCCNC(=N)N)C(=O)N1CCC[C@H]1C(=O)N[C@@H](CCC(N)=O)C(=O)NCC(=O)O)C(C)C [Compound 7] (H-RKKNFLDKLKEKLRTVITSHIDKVLRPQG-OH; lactam 3-7),>64 µM,>64 µM,,
RKANFLAKLKEKLRTVITSHIDKVLRPQG [Compound 2],>64 µM,>64 µM,4 to 8 µM,
CC[C@H](C)[C@@H]1NC(=O)[C@H](Cc2c[nH]cn2)NC(=O)[C@H](CO)NC(=O)[C@H]([C@@H](C)O)NC(=O)[C@H]([C@@H](C)CC)NC(=O)[C@H](C(C)C)NC(=O)[C@H]([C@@H](C)O)NC(=O)[C@H](CCCNC(=N)N)NC(=O)[C@H](CC(C)C)NC(=O)[C@H](CCCCN)NC(=O)[C@H](CCC(=O)O)NC(=O)[C@H](CCCCN)NC(=O)[C@H](CC(C)C)NC(=O)[C@H](CCCCN)NC(=O)[C@@H]2CSSC[C@H](NC(=O)[C@H](CCCCN)NC(=O)[C@H](CCCNC(=N)N)NC(=O)CNC(=O)[C@H](CCC(N)=O)NC(=O)[C@@H]3CCCN3C(=O)[C@H](CCCNC(=N)N)NC(=O)[C@H](CC(C)C)NC(=O)[C@H](C(C)C)NC(=O)[C@H](CCCCN)NC(=O)[C@H](CC(=O)O)NC1=O)C(=O)N[C@@H](CC(N)=O)C(=O)N[C@@H](Cc1ccccc1)C(=O)N[C@@H](CC(C)C)C(=O)N2 [Compound 3] (cyclo(CKLKEKLRTVITSHIDKVLRPQGRKCNFL); disulfide 1-26),>64 µM,>64 µM,,
CC[C@H](C)[C@H](NC(=O)[C@H](Cc1c[nH]cn1)NC(=O)[C@H](CO)NC(=O)[C@@H](NC(=O)[C@@H](NC(=O)[C@@H](NC(=O)[C@@H](NC(=O)[C@H](CCCNC(=N)N)NC(=O)[C@H](CC(C)C)NC(=O)[C@H](CCCCN)NC(=O)[C@H](CCC(=O)O)NC(=O)[C@H](CCCCN)NC(=O)[C@H](CC(C)C)NC(=O)[C@H](CCCCN)NC(=O)[C@@H]1CCNC(=O)CC[C@H](NC(=O)[C@H](CCCCN)NC(=O)[C@@H](N)CCCNC(=N)N)C(=O)N[C@@H](CC(N)=O)C(=O)N[C@@H](Cc2ccccc2)C(=O)N[C@@H](CC(C)C)C(=O)N1)[C@@H](C)O)C(C)C)[C@@H](C)CC)[C@@H](C)O)C(=O)N[C@@H](CC(=O)O)C(=O)N[C@@H](CCCCN)C(=O)N[C@H](C(=O)N[C@@H](CC(C)C)C(=O)N[C@@H](CCCNC(=N)N)C(=O)N1CCC[C@H]1C(=O)N[C@@H](CCC(N)=O)C(=O)NCC(=O)O)C(C)C [Compound 9] (H-RKENFL[Dab]KLKEKLRTVITSHIDKVLRPQG-OH; lactam 3-7),>64 µM,>64 µM,,
CC[C@H](C)[C@H](NC(=O)[C@H](Cc1c[nH]cn1)NC(=O)[C@H](CO)NC(=O)[C@@H](NC(=O)[C@@H](NC(=O)[C@@H](NC(=O)[C@@H](NC(=O)[C@H](CCCNC(=N)N)NC(=O)[C@H](CC(C)C)NC(=O)[C@H](CCCCN)NC(=O)[C@H](CCC(=O)O)NC(=O)[C@H](CCCCN)NC(=O)[C@H](CC(C)C)NC(=O)[C@H](CCCCN)NC(=O)[C@@H]1CCNC(=O)C[C@H](NC(=O)[C@H](CCCCN)NC(=O)[C@@H](N)CCCNC(=N)N)C(=O)N[C@@H](CC(N)=O)C(=O)N[C@@H](Cc2ccccc2)C(=O)N[C@@H](CC(C)C)C(=O)N1)[C@@H](C)O)C(C)C)[C@@H](C)CC)[C@@H](C)O)C(=O)N[C@@H](CC(=O)O)C(=O)N[C@@H](CCCCN)C(=O)N[C@H](C(=O)N[C@@H](CC(C)C)C(=O)N[C@@H](CCCNC(=N)N)C(=O)N1CCC[C@H]1C(=O)N[C@@H](CCC(N)=O)C(=O)NCC(=O)O)C(C)C [Compound 8] (H-RKDNFL[Dab]KLKEKLRTVITSHIDKVLRPQG-OH; lactam 3-7),>64 µM,>64 µM,4 to 8 µM,
"C[C@@H]1[C@H](O)[C@@H](C)/C=C/C=C/C=C/C=C/C=C/C=C/C=C/[C@H](O[C@@H]2O[C@H](C)[C@@H](O)[C@H](N)[C@@H]2O)C[C@@H]2O[C@](O)(C[C@@H](O)C[C@@H](O)[C@H](O)CC[C@@H](O)C[C@@H](O)CC(=O)O[C@H]1C)C[C@H](O)[C@H]2C(=O)O [A, Amphotericin B, reference compound]",,,,"MIC (S. aureus (ATCC 29213); S. aureus ATCC 29213, non-cation-adjusted Mueller-Hinton broth (MHB), 37 °C, technical triplicate, three independent occasions): >64 µM; MIC (S. aureus (ATCC 29213); Staphylococcus aureus, ATCC29213, S. aureus ATCC 29213, cation-adjusted Mueller-Hinton broth (CAMHB), 37 °C, technical triplicate, three independent occasions): > 64 µM; MIC (P. aeruginosa (SVB-B9); Pseudomonas aeruginosa, cation-adjusted Mueller-Hinton broth (CAMHB)): 2 µM; MIC (C. albicans (SC5314); Candida albicans, C. albicans SC5314 type strain, RPMI 1640 media, three independent occasions): 1 µM"
